Results published in PubChem BioAssay AID212 (DTP/NCI, 2004).
Where “and” joins values, the source holds several entries; their conditions need not be identical. Identical values can stand only once. Inconclusive results are not listed.

System: BDF1 mice, colon carcinoma 38 sc, T/C %
Experiment: NCI In Vivo Anticancer Drug Screen. Data for tumor model Colon Carcinoma 38 (subcutaneous) in B6D2F1 (BDF1) mice
Settings: endpoint: median tumor weight (est.), higher = larger tumour
Outline: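 Mice with transplanted tumors are treated with compound or vehicle. Survival or tumor size is then measured in both groups. The ratio of treated to control gives the reported figure.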

[1] = dose: 25.0 mg/kg/injection, schedule: Q07DX002 (ip), vehicle: saline with Tween-80
[2] = dose: 100.0 mg/kg/injection, schedule: Q07DX002 (ip), vehicle: saline with Tween-80
[3] = dose: 12.5 mg/kg/injection, schedule: Q07DX002 (ip), vehicle: saline with Tween-80
[4] = dose: 12.5 mg/kg/injection, schedule: Q07DX002 (ip), vehicle: saline

Q: What does the source list for COc1ccc2c(NCCCCCCNc3c4ccccc4nc4cc(OC)ccc34)c3ccccc3nc2c1?
A: T/C (dose: 0.31 mg/kg/injection, schedule: Q07DX002 (ip), vehicle: lactic acid): 54 % of control; T/C (dose: 0.32 mg/kg/injection, schedule: Q07DX002 (ip), vehicle: lactic acid): 72 % of control

Q: With O=C1NC(O)c2ccccc2O1 (stereo unspecified) as the compound, how does the T/C [1] read?
A: 93 % of control

Q: What about the T/C (dose: 25.0 mg/kg/injection, schedule: Q07DX002 (ip), vehicle: suspension in saline) of the same compound?
A: 64 % of control

Q: What about the T/C (dose: 50.0 mg/kg/injection, schedule: Q07DX002 (ip), vehicle: saline with Tween-80) of the same compound?
A: 90 % of control

Q: And the T/C (dose: 50.0 mg/kg/injection, schedule: Q07DX002 (ip), vehicle: suspension in saline)?
A: 113 % of control and 93 % of control

Q: And the T/C [2]?
A: 75 % of control

Q: What about the T/C (dose: 100.0 mg/kg/injection, schedule: Q07DX002 (ip), vehicle: suspension in saline) of the same compound?
A: 60 % of control and 70 % of control

Q: And the T/C (dose: 200.0 mg/kg/injection, schedule: Q07DX002 (ip), vehicle: saline with Tween-80)?
A: 69 % of control

Q: What about the T/C (dose: 400.0 mg/kg/injection, schedule: Q07DX002 (ip), vehicle: saline with Tween-80) of the same compound?
A: 82 % of control

Q: What does the source list for Clc1cc(Cl)c(C[N+]23CN4CN(CN(C4)C2)C3)cc1Cl?
A: T/C [3]: 80 % of control and 90 % of control; T/C [1]: 118 % of control

Q: Which T/C (dose: 16.0 mg/kg/injection, schedule: Q07DX003 (ip), vehicle: clinical formulation) does the source give for COc1cc([C@@H]2c3cc4c(cc3[C@@H](OC3OC5COC(C)OC5C(O)C3O)[C@H]3COC(=O)[C@H]23)OCO4)cc(OC)c1O (stereo partly specified) here?
A: 68 % of control

Q: And the T/C (dose: 32.0 mg/kg/injection, schedule: Q07DX003 (ip), vehicle: clinical formulation)?
A: 83 % of control

Q: And the T/C (dose: 64.0 mg/kg/injection, schedule: Q07DX003 (ip), vehicle: clinical formulation)?
A: 27 % of control

Q: What does the source list for CC(=O)C(=O)O.CC(=O)C(=O)O.[NH-]C1CCCCC1[NH-].[Pt+2] (stereo unspecified)?
A: T/C (dose: 25.0 mg/kg/injection, schedule: Q07DX002 (ip), vehicle: dextrose): 96 % of control; T/C (dose: 50.0 mg/kg/injection, schedule: Q07DX002 (ip), vehicle: dextrose): 44 % of control

Q: Which results are given for COc1cc(C2C3=C(CC(C)(C)CC3=O)N(CC(=O)O)C3=C2C(=O)CC(C)(C)C3)ccc1O?
A: T/C [4]: 90 % of control; T/C (dose: 25.0 mg/kg/injection, schedule: Q07DX002 (ip), vehicle: saline): 99 % of control; T/C (dose: 50.0 mg/kg/injection, schedule: Q07DX002 (ip), vehicle: saline): 118 % of control; T/C (dose: 100.0 mg/kg/injection, schedule: Q07DX002 (ip), vehicle: saline): 111 % of control; T/C (dose: 200.0 mg/kg/injection, schedule: Q07DX002 (ip), vehicle: saline): 55 % of control; T/C (dose: 400.0 mg/kg/injection, schedule: Q07DX002 (ip), vehicle: saline): 118 % of control

Q: What does the source list for CC1=CC(C)(C)Nc2ccc(CSc3ccccc3)cc21?
A: T/C (dose: 6.25 mg/kg/injection, schedule: Q07DX002 (ip), vehicle: DMSO): 88 % of control; T/C (dose: 12.5 mg/kg/injection, schedule: Q07DX002 (ip), vehicle: DMSO): 86 % of control; T/C (dose: 12.5 mg/kg/injection, schedule: Q07DX002 (ip), vehicle: saline + Tween-80 + alcohol): 78 % of control; T/C (dose: 25.0 mg/kg/injection, schedule: Q07DX002 (ip), vehicle: DMSO): 76 % of control; T/C (dose: 25.0 mg/kg/injection, schedule: Q07DX002 (ip), vehicle: saline + Tween-80 + alcohol): 86 % of control; T/C (dose: 50.0 mg/kg/injection, schedule: Q07DX002 (ip), vehicle: DMSO): 67 % of control; T/C (dose: 50.0 mg/kg/injection, schedule: Q07DX002 (ip), vehicle: saline + Tween-80 + alcohol): 107 % of control; T/C (dose: 100.0 mg/kg/injection, schedule: Q07DX002 (ip), vehicle: DMSO): 59 % of control; T/C (dose: 100.0 mg/kg/injection, schedule: Q07DX002 (ip), vehicle: saline + Tween-80 + alcohol): 102 % of control

Q: For CN(C)CCCNc1c2ccccc2nc2cccc([N+](=O)[O-])c12, which T/C (dose: 0.03 mg/kg/injection, schedule: Q07DX002 (ip), vehicle: saline) is on record?
A: 112 % of control and 104 % of control

Q: What about the T/C (dose: 0.06 mg/kg/injection, schedule: Q07DX002 (ip), vehicle: saline) of the same compound?
A: 116 % of control

Q: And the T/C (dose: 0.06 mg/kg/injection, schedule: Q07DX003 (ip), vehicle: saline)?
A: 93 % of control

Q: What about the T/C (dose: 0.12 mg/kg/injection, schedule: Q07DX003 (ip), vehicle: saline) of the same compound?
A: 98 % of control

Q: And the T/C (dose: 0.25 mg/kg/injection, schedule: Q07DX003 (ip), vehicle: saline)?
A: 101 % of control

Q: With CNc1nc2c(N)ncnc2n1C1OC(CO)C(O)C1O (stereo unspecified) as the compound, how does the T/C [4] read?
A: 103 % of control

Q: Which results are given for O=[N+]([O-])c1ccc(Sc2ccncn2)c([N+](=O)[O-])c1?
A: T/C [3]: 51 % of control; T/C [1]: 64 % of control and 74 % of control; T/C [2]: 43 % of control and 44 % of control
